Data from US9334498B2, “Methods and compositions for modulating MIR-204 activity” (UAB Research Foundation, priority 2012, dated 2016).
Oligonucleotides are written 5' to 3', each unit as a sugar letter and its base; * is a phosphorothioate linkage, no mark a phosphodiester; rarer units and linkages stand in square brackets, end groups in braces. Plain capitals give the bases only. {Chol} = cholesterol; m = 2'-O-methyl

Key:
miR-204 = assay: Antagomir pilot studies in vivo: islet miR-204 expression; parameters: species or system mouse; conditions: after just one injection
Protocol: miR-204 knock down (in vitro and in vivo). We will utilize the miR204 inhibitor oligo (IN-320505-05; meridian Hairpin Inhibitor rno-miR-204) or scrambled control (IN-001005-01-05) (Dharmacon) to perform transfection experiments in INS-1 cells and primary human islets as mentioned above and described herein. This microRNA inhibitor oligonucleotide specifically binds to miR-204 and targets it for degradation. In fact, 72 h after transfection we saw a significant ˜5-fold reduction in miR-204 expression, but no effect on other microRNAs (data not shown) confirming the effectiveness and specificity of this approach. […] Therefore, after diabetes has been confirmed by blood glucose readings over 250 mg/dL on two consecutive days, these obese and diabetic male mice and their lean, non-diabetic littermates will again be divided into three treatment groups and will receive antagomir, mutant antagomir or saline injections as described for the wild-type mice. In all mice, blood glucose levels will be assessed daily (by glucometer) and serum will be collected before injection and prior to sacrifice for measurement of insulin levels (by ELISA)(17). […]

STAT3 = target: T1, STAT3 (Rattus norvegicus, UniProt P52631); assay: STAT3 inhibition in INS-1 cells, expression by qRT-PCR; format: cell-based
T1 construct: endogenous in cells; host or cells: INS-1 rat beta cells
T1 sequence (P52631 whole entry): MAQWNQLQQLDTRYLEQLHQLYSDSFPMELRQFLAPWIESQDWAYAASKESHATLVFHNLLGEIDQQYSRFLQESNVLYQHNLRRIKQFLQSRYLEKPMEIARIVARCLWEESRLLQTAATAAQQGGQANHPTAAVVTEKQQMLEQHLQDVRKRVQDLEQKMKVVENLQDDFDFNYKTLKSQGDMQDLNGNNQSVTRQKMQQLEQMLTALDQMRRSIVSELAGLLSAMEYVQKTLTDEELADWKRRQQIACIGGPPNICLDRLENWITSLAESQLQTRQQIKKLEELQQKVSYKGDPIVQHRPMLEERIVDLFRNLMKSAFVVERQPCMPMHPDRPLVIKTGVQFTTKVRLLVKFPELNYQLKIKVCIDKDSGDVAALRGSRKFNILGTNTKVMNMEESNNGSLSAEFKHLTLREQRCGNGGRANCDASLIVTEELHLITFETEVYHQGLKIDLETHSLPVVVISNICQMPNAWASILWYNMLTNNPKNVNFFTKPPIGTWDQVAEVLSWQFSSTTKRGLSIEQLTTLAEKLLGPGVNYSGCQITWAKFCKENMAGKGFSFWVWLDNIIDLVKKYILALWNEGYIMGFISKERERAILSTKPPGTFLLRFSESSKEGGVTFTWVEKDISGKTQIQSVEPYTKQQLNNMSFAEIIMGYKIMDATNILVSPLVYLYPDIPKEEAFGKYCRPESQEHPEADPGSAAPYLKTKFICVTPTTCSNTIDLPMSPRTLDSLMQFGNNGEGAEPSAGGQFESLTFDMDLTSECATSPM
Protocol: FIG. 18. Effects of TXNIP and diabetes on beta cell miR-204 expression. Expression of miR-204 was assessed by qRT-PCR in (A) INS-1 cells overexpressing TXNIP (INS-TXNIP) and control (INS-LacZ) cells, (B) primary islets of TXNIP-deficient HcB-19 and C3H control mice, and (C) primary islets of beta-cell-specific TXNIP knockout bTKO and lox/lox control mice. (D) TXNIP effects on STAT3 activation were determined by immunoblotting for phospho-STAT3 (p-STAT3) and total STAT3 in INS-TXNIP and control INS-LacZ cells. (E) To determine the role of STAT3 in miR-204 expression, INS-1 cells were incubated with the STAT3 inhibitor STATTIC (2 μM for 48 hr) or vehicle (DMSO) and the expression of miR-204 was detected by qRT-PCR. (F) To assess the effect of diabetes on miR-204 expression, primary islets of 10-week old, male, diabetic ob/ob or lean control mice were analyzed by qRT-PCR. Bars represent means±SEM; n=3-5 independent experiments.
miR-204 is encoded within intron 6 of the TRPM3 gene (transient receptor potential melastatin 3, a cation-selective channel) and is transcribed in the same direction as TRPM3^30. Since miR-204 and TRPM3 are therefore sharing the same promoter, we deduced that, if TXNIP were to regulate miR-204 expression at the transcriptional level, TRPM3 would be co-regulated in parallel. […]

| Compound | reduction in islet miR-204 expression (miR-204) | TRPM3 (host gene) expression (STAT3) | miR-204 expression (STAT3; 2 μM for 48 hr vs DMSO) |
| --- | --- | --- | --- |
| 5′-mA(*)mG(*)mGmCmAmUmAmGmGmAmUmGmAmCmAmAmAmG mG(*)mG(*)mA(*) mA(*)-3Chl (antisense mA*mG*mGmCmAmUmAmGmGmAmUmGmAmCmAmAmAmGmG*mG*mA*mA*{Chol}) [miR-204 antagomir] | ~2 fold |  |  |
| O=[N+]([O-])c1ccc2c(c1)S(=O)(=O)C=C2 [STATTIC] |  | significantly induced | significantly induced |
